Legend:
Klebsiella pneumoniae = assay: Anti-infectious activity with respect to Klebsiella; assay type: in vivo; conditions: mice, i.v. treatment 24h before 2 × 10^4 bacteria i.m.
Procedure: The survival of groups of inoculated mice under the above conditions and treated by means of the products according to the invention was followed.
The infecting dose was 2.10^4 Klebsiella; it was administered by the intramuscular route.
The administration of the tested product was carried out by the intravenous route in 0.2 ml of apyrogenic physiological solution, the controls receiving the solution alone. It was carried out 24 hours before the inoculation.
The percentage protection indicated is a difference of the percentages of survivors of the treated group with respect to the control group.

[1] = Toxicity (lethal dose 50) by parenteral administration in the adrenalectomised mouse; assay type: in vivo, mice
Procedure: The toxicity of the products according to the invention was investigated by parenteral administration in mice. It was observed that the toxic doses were of an order of magnitude very much higher than that of the doses at which these products manifest their activity. Thus the lethal dose 50 of the products according to the invention tested was higher than 5 mg/kg of animal in the adrenalectomised mouse, whose sensitivity to endotoxins is well-known.

[2] = test system: bovine serum albumin (BSA); assay: Adjuvant character in the aqueous phase (antibody titer by passive hemagglutination); assay type: in vivo, Swiss mice; conditions: mice, 0.5 mg BSA with 0.1 mg tested substance SC in isotonic saline, booster day 30, titer at the 36th day
Procedure: Groups of 8 Swiss mice aged two months received, by sub-cutaneous injection (SC), 0.5 mg of antigen constituted by bovine serum albumin (BSA) with 0.1 mg or without the tested substance in an isotonic saline solution. This high dose of antigen, because it is situated at the limit of the paralyzing dose with respect to the immunitary response, results, for this reason, in a weak or zero response to the antigen only in the controls: It constitutes therefore a severe criterien to establish the activity of an adjuvant substance. Thirty days later, the mice received, by the same administrative route, a booster containing 0.1 mg of the same antigen.
The antibody level was determined, six days after the booster, by passive hemagglutination using sheep's red blood corpuscles treated with formalin and covered with the antigen studied according to the method described by A. A. HIRATA and M. W. BRANDISS (J. Immunol., 100, 641-648, 1968).
The antibody titer, represented by the maximum serum dilution agglutinating a given amount of sheep corpuscles, reaches a maximum at the 36th day and is established in the following manner: […]

Ovalbumin = assay: Adjuvant character in emulsion (delayed hypersensitivity and antibodies); assay type: in vivo, Hartley guinea pigs; conditions: guinea pigs, 50 μg in AlF emulsion with 1 mg ovalbumin; for Log2 of the hemagglutinating titer: serum day 21; for HSR (diameter of the delayed hypersensitivity reaction): skin test day 18, read 48 hours later
Procedure: The tests were carried out on batches of 6 male Hartley guinea pigs of 350 g. The administration was done by intradermal injection into the plantar pad of each of the rear paws. Ovalbumin (constituting the antigen) in the amount of 1 mg is prepared in 0.1 ml of an emulsion of saline isotonic solution, in any oily phase constituted either by the Freund imcomplete adjuvant (FIA), or by the complete adjuvant (FCA) formed by the FIA to which is added 0.1 mg of whole Mycobacterium smegmatis cells. The compound according to the invention was administered in the amount of 0.05 mg added in the emulsion containing the FIA.
Eighteen days after this immunization, possible delayed hypersensitivity reactions to the antigen were sought by injecting by the intradermal route 0.01 mg of ovalbumin in the side of the animals, and 48 hours later, the reaction of the point of injection was observed. The diameter in millimeters of the reaction thus caused was measured.
Twenty-one days after the injection, the animals were bled. […]

[3] = test system: Limulus amoebocyte lysate; assay: Limulus test (endotoxic type activity); conditions: gel formation after 20 minutes at 37° C.
Procedure: For this purpose, 0.1 ml of the Limulus amoebocyte lysate preparation (marketed by the MALLINCKRODT Company, at St. LOUIS, U.S.A.) was mixed with an equal volume of the tested product at various concentrations in solution in apyrogenic distilled water. The vessels used were also made apyrogenic by dry heating in the oven, at 180° C., for 2 hours.
After incubating the mixture for 20 minutes at 37° C. in tubes, the formation of gel characteristics of the presence of endotoxin was estimated.

Listeria monocytogenes = assay: Anti-infectious activity with respect to Listeria; assay type: in vivo; conditions: mice, i.v., 1 day before infection

Row | Compound | % of protection (Klebsiella pneumoniae; dose per mouse 100) [%] | Number of survivors at day 3 (Klebsiella pneumoniae; dose per mouse 100) | Number of survivors at day 5 (Klebsiella pneumoniae; dose per mouse 100) | Number of survivors at day 8 (Klebsiella pneumoniae; dose per mouse 100) | lethal dose 50 [1] | Log2 hemagglutinating titer [2] | Log2 of the hemagglutinating titer (Ovalbumin) | HSR (diameter of the delayed hypersensitivity reaction) (Ovalbumin) [millimeters] | other results
1 | CCCCOC(=O)CC[C@@H](NC(=O)[C@H](C)NC(=O)[C@@H](C)O[C@H]1[C@H](O)[C@@H](CO)OC(O)[C@@H]1NC(C)=O)C(=O)OC (stereo partly drawn) [MDPA(butyl--ester)OCH3, α-methyl, γ-n-butyl N-acetyl-muramyl-L-alanyl-D-glutamic diester] | 38 | 12 | 11 | 9 | – | – | – | – | –
2 | CC(=O)N[C@H]1C(O)O[C@H](CO)[C@@H](O)[C@@H]1O[C@H](C)C(=O)N[C@@H](C)C(=O)N[C@H](CCC(=O)N[C@@H](C)C(=O)OCc1ccccc1)C(N)=O (stereo partly drawn) [MDP--L--Ala--benzyl--ester, Benzyl ester of N-acetyl-muramyl-L-alanyl-D-isoglutaminyl-L-alanine] | 46 | 24 | 14 | 14 | higher than 5 mg/kg | 7.47 ± 0.89 | 12.31 ± 0.82 | 12.5 ± 3.5 | –
3 | CCCCCCCCCCNC(=O)[C@H](C)NC(=O)CC[C@@H](NC(=O)[C@H](C)NC(=O)[C@@H](C)O[C@H]1[C@H](O)[C@@H](CO)OC(O)[C@@H]1NC(C)=O)C(N)=O (stereo partly drawn) [MDP--L--Ala--decyl--amide, Decylamide of N-acetyl-muramyl-L-alanyl-D-isoglutamine-L-alanine] | 50 | 21 | 17 | 16 | higher than 5 mg/kg | 8.64 ± 0.95 | – | – | Limulus test result (concentration of the tested product) [3]: 100 µg/mL
4 | CCCCCCCCCCCCCCCOC(=O)[C@H](C)NC(=O)CC[C@@H](NC(=O)[C@H](C)NC(=O)[C@@H](C)O[C@H]1[C@H](O)[C@@H](CO)OC(O)[C@@H]1NC(C)=O)C(N)=O (stereo partly drawn) [MDP--L--Ala--penta--decyl--ester, Pentadecyl ester of N-acetyl-muramyl-L-alanyl-D-isoglutaminyl-L-alanine] | 50 | 24 | 16 | 15 | – | 8.39 ± 0.89 | 10.97 ± 1.04 | 5 | –
5 | CCCCCCCCCCOC(=O)CC[C@@H](NC(=O)[C@H](C)NC(=O)[C@@H](C)O[C@H]1[C@H](O)[C@@H](CO)OC(O)[C@@H]1NC(C)=O)C(N)=O (stereo partly drawn) [MDP--decyl--ester, Decyl ester of N-acetyl-muramyl-L-alanyl-D-isoglutamine] | 75 | 24 | 21 | 21 | higher than 5 mg/kg | 8.64 ± 1.31 | – | – | Number of survivors at day 3 (Klebsiella pneumoniae; dose per mouse 10): 1; Number of survivors at day 5 (Klebsiella pneumoniae; dose per mouse 10): 0; Number of survivors at day 8 (Klebsiella pneumoniae; dose per mouse 10): 0
6 | CCCCCCCCCCOC(=O)CC[C@@H](NC(=O)[C@H](C)NC(=O)[C@@H](C)O[C@H]1[C@H](O)[C@@H](CO)OC(O)[C@@H]1NC(C)=O)C(=O)OC (stereo partly drawn) [MDPA(decyl--ester)OCH3, α-methyl, γ-decyl N-acetyl-muramyl-L-alanyl-D-glutamic diester] | 44 | 13 | 11 | 10 | – | – | – | – | –
7 | CCCCOC(=O)[C@H](C)NC(=O)CC[C@@H](NC(=O)[C@H](C)NC(=O)[C@@H](C)O[C@H]1[C@H](O)[C@@H](CO)OC(O)[C@@H]1NC(C)=O)C(N)=O (stereo partly drawn) [MDP--L--Ala--butyl--ester, n-butyl ester of N-acetyl-muramyl-L-alanyl-D-isoglutaminyl-L-alanine] | 54 | 23 | 18 | 17 | – | 10.31 ± 0.49 | 13.31 ± 0.52 | 18 ± 2 | –
8 | CCCCCCCCCCOC(=O)[C@H](C)NC(=O)CC[C@@H](NC(=O)[C@H](C)NC(=O)[C@@H](C)O[C@H]1[C@H](O)[C@@H](CO)OC(O)[C@@H]1NC(C)=O)C(N)=O (stereo partly drawn) [MDP--L--Ala--decyl--ester, Decyl ester of N-acetyl-muramyl-L-alanyl-D-isoglutaminyl-L-alanine] | 44 | 30 | 22 | 22 | – | 6.23 ± 1.23 | – | – | % of protection (Listeria monocytogenes; 10 μg per mouse): 50%; Number of surviving animals at day 5 (Listeria monocytogenes; 10 μg per mouse): 7; Number of surviving animals at day 10 (Listeria monocytogenes; 10 μg per mouse): 5; % of protection (Listeria monocytogenes; 100 μg per mouse): 38%; Number of surviving animals at day 5 (Listeria monocytogenes; 100 μg per mouse): 19; Number of surviving animals at day 10 (Listeria monocytogenes; 100 μg per mouse): 11; % of protection (Listeria monocytogenes; 300 μg per mouse): 23%; Number of surviving animals at day 5 (Listeria monocytogenes; 300 μg per mouse): 11; Number of surviving animals at day 10 (Listeria monocytogenes; 300 μg per mouse): 5; Limulus test result (concentration of the tested product) [3]: 100 µg/mL
9 | CCCCCCCCCCOC(=O)[C@H](CCCCN)NC(=O)CC[C@@H](NC(=O)[C@H](C)NC(=O)[C@@H](C)O[C@H]1[C@H](O)[C@@H](CO)OC(O)[C@@H]1NC(C)=O)C(N)=O (stereo partly drawn) [MDP--L--Lys--decyl--ester, Decyl ester of N-acetyl-muramyl-L-alanyl-D-isoglutaminyl-L-lysine] | 71 | 22 | 20 | 20 | higher than 5 mg/kg | 9.64 ± 0.70 | – | – | –

Source: US4396607A, “Muramyl peptide derivatives and pharmaceutical compositions” (priority 1978, dated 1983)
